According to PubChem BioAssay (NCI):
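Results reflect a 48-hour exposure of cells in 96-well plates to compound at five concentrations. Definition used: TGI = concentration required for complete inhibition of growth.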

Tests used:
Experiment in all cases: DTP human tumour cell line panel, 48 h
RXF 393 renal = test system: RXF 393 renal
SF-268 CNS = test system: SF-268 CNS
NCI-H226 lung = test system: NCI-H226 lung
NCI/ADR-RES ovarian = test system: NCI/ADR-RES ovarian
SK-MEL-28 melanoma = test system: SK-MEL-28 melanoma
A549 NSCLC = test system: A549 NSCLC
MDA-N = test system: MDA-N
ACHN renal = test system: ACHN renal
MALME-3M melanoma = test system: MALME-3M melanoma
KM12 colon = test system: KM12 colon

| Structure (SMILES) | TGI (RXF 393 renal) | TGI (SF-268 CNS) | TGI (NCI-H226 lung) | TGI (NCI/ADR-RES ovarian) | TGI (SK-MEL-28 melanoma) | TGI (A549 NSCLC) | TGI (MDA-N) | TGI (ACHN renal) | TGI (MALME-3M melanoma) | TGI (KM12 colon) |
| --- | --- | --- | --- | --- | --- | --- | --- | --- | --- | --- |
| CCOC(=O)C(C)c1nc2cc(F)c(F)cc2[nH]c1=O (stereo not given) | > 100 µM | > 100 µM | > 100 µM | > 100 µM | > 100 µM | > 100 µM | > 100 µM | > 100 µM | > 100 µM | > 100 µM |
| Cc1ccc(C(=O)N/N=C(\N=Nc2ccc([N+](=O)[O-])cc2)c2ccc(N(CCC#N)CCC#N)cc2C)cc1 | 50.9 µM | > 100 µM | > 100 µM | > 100 µM | > 100 µM | > 100 µM | > 100 µM | > 100 µM | > 100 µM | > 100 µM |
| Cc1ccc(S(=O)(=O)N/N=C2\C=CC3(CC2)C(=O)N(I)c2ccccc23)cc1 (stereo not given) | 98 µM | > 100 µM | > 100 µM | > 100 µM | > 100 µM | > 100 µM | > 100 µM | > 100 µM | 6.82 µM | > 100 µM |
| CSc1cc(Cl)c(C)cc1S(=O)(=O)NC(=O)NNc1ccc(C)cc1 | > 100 µM | > 100 µM | > 100 µM | > 100 µM | > 100 µM | > 100 µM | > 100 µM | > 100 µM | > 100 µM | > 100 µM |
| Nc1cccc(-c2cc(=O)c3cc4c(cc3[nH]2)OCO4)c1 | > 100 µM | > 100 µM | > 30.4 µM | 2.95 µM | > 100 µM | > 47.8 µM | 0.474 µM | > 100 µM | > 100 µM | > 21.6 µM |
| O=C1c2cc3c(cc2NC(c2ccccc2F)C1O)OCO3 (stereo not given) | > 64.9 µM | 68.2 µM | > 64.7 µM | > 64.7 µM | > 79.4 µM | > 63.1 µM | 8.29 µM | > 100 µM | > 100 µM | > 100 µM |
| Nc1nc(Cl)c(CO)c(NCC2(CO)CCC2)n1 | > 100 µM | > 100 µM | > 100 µM | > 100 µM | > 100 µM | > 100 µM | > 100 µM | > 100 µM | > 100 µM | > 100 µM |
| CC(=O)OC1CCn2c1nc1cc([N+](=O)[O-])c(C)cc12 (stereo not given) | > 100 µM | > 100 µM | > 100 µM | > 100 µM | > 100 µM | > 100 µM | > 100 µM | > 100 µM | > 100 µM | > 100 µM |
| CC(=O)OCC1OC(OCCCOP(=O)(OCCC#N)OCC2OC(n3cnc4c(N)ncnc43)C(OC(=O)c3ccccc3)C2OC(=O)c2ccccc2)C(OC(C)=O)C(OC(C)=O)C1OC(C)=O (stereo not given) | > 100 µM | > 100 µM | > 100 µM | > 100 µM | > 100 µM | > 100 µM | > 100 µM | > 100 µM | 5.53 µM | > 100 µM |
| CCN(CC)c1c(C(C)(C)C)c(=O)n2ccsc2c1OC(C)=O | 30.7 µM | 30.1 µM | 29.2 µM | 28.4 µM | 30.8 µM | 28.2 µM | 34.6 µM | 29.7 µM | 25.8 µM | 30.6 µM |
| CCOP1(=O)CC(C)=C(Cl)C(OC)C1 (stereo not given) | > 100 µM | > 100 µM | > 100 µM | > 100 µM | > 100 µM | > 100 µM | > 100 µM | > 100 µM | > 100 µM | > 100 µM |
| CCOC(=O)C1=C(O)CC(=O)N=C1N1CCCC1 | > 100 µM | > 100 µM | > 100 µM | > 100 µM | > 100 µM | > 100 µM | > 100 µM | > 100 µM | > 100 µM | > 100 µM |
| Nc1nc(N)c2nc(CN(C=O)c3ccc(C(=O)O)cc3)cnc2n1 | > 100 µM | > 100 µM | > 100 µM | > 45.2 µM | > 100 µM | > 100 µM | > 100 µM | > 100 µM | > 100 µM | > 100 µM |
| CN(C)S(=O)(=O)c1ccc2[nH]c(O)c(C3=Nc4ccccc4C3=O)c2c1 | 14.2 µM | 38.7 µM | 81.3 µM | > 100 µM | > 100 µM | > 100 µM | > 100 µM | 33.7 µM | > 100 µM | > 100 µM |
| Nc1nc(Sc2ccc([N+](=O)[O-])c3nonc23)c2[nH]cnc2n1 | 8.32 µM | 18 µM | 11.3 µM | 25.4 µM | 22.3 µM | 25.1 µM | 12.2 µM | 10.4 µM | 5.03 µM | 15.3 µM |
| COc1cc(/C=C(\C)[N+](=O)[O-])cc(OC)c1 | 13.1 µM | 35.6 µM | > 94.7 µM | 39.8 µM | 33.2 µM | 61.5 µM | 17.5 µM | 30.3 µM | 29.4 µM | 36.8 µM |
| CCOC(=O)N1c2ccccc2C(C)=CC(C)C1C (stereo not given) | 51 µM | > 100 µM | 80.1 µM | > 100 µM | > 100 µM | > 100 µM | 27.3 µM | > 100 µM | > 100 µM | 83.4 µM |

| Structure (SMILES) | TGI (RXF 393 renal) | TGI (SF-268 CNS) | TGI (NCI-H226 lung) | TGI (NCI/ADR-RES ovarian) | TGI (SK-MEL-28 melanoma) | TGI (A549 NSCLC) | TGI (MDA-N) | TGI (ACHN renal) | TGI (MALME-3M melanoma) | TGI (KM12 colon) |
| --- | --- | --- | --- | --- | --- | --- | --- | --- | --- | --- |
| Clc1ccc(-c2cn3c(nc4ccccc43)c(-c3ccccc3)n2)cc1 | > 49.2 µM | > 100 µM | > 100 µM | > 100 µM | > 100 µM | 51.4 µM | > 100 µM | 95.9 µM | > 63.7 µM | > 100 µM |
| COC(=O)/C=C(C)/C=C\COC1CCCCO1 (stereo not given) | > 100 µM | > 100 µM | > 100 µM | > 100 µM | > 100 µM | > 100 µM | > 100 µM | > 100 µM | > 100 µM | > 100 µM |
| O=C1NC(N2CCCC(CO)C2)=N/C1=C\c1cccs1 (stereo not given) | > 100 µM | > 100 µM | > 100 µM | > 100 µM | > 100 µM | > 100 µM | > 100 µM | > 100 µM | > 100 µM | > 100 µM |
| CCOC(=O)[C@@]12C[C@](/C=C/OC)(O[Si](C)(C)C)[C@@]13c1cc(OC)c(OC)cc1CCN3C(=O)C2=O | > 100 µM | > 100 µM | > 100 µM | > 100 µM | > 100 µM | > 100 µM | > 100 µM | > 100 µM | > 100 µM | > 100 µM |
| O=C(/C=C/c1ccc(-c2ccccc2)cc1)NCc1ccc(C(=O)NCCc2ccccc2)cc1 | 94.9 µM | > 100 µM | > 100 µM | > 100 µM | > 100 µM | > 100 µM | > 100 µM | > 100 µM | > 100 µM | > 100 µM |
| NC(CCC(=O)c1ccccn1)C(=O)O (stereo not given) | > 100 µM | > 100 µM | > 100 µM | > 100 µM | > 100 µM | > 100 µM | > 100 µM | > 100 µM | > 100 µM | > 100 µM |
| CNC(=O)[C@H](Cc1ccccc1)NC(=O)N(CCC#N)CCN(C(=O)N[C@@H](Cc1ccccc1)C(=O)OC)c1ccccc1 | > 100 µM | > 100 µM | > 100 µM | > 100 µM | > 100 µM | > 100 µM | > 100 µM | > 100 µM | > 100 µM | > 100 µM |
| Cc1nc2ccc(NCCN(C)C)c3c(=O)c4ccccc4n1c23 | 22.9 µM | 20.2 µM | 8.69 µM | 6.83 µM | 21 µM | 6.42 µM | 12.4 µM | 22.3 µM | 18.5 µM | 13.1 µM |
| Cc1cccc2c(=O)c3c(O)cc(O)cc3n(C)c12 | > 100 µM | > 100 µM | > 100 µM | > 100 µM | > 100 µM | > 100 µM | > 100 µM | > 100 µM | > 100 µM | > 100 µM |
| CC(=O)O[C@H]1[C@@H](N2CCOCC2)C[C@H]2[C@@H]3CC=C4C[C@@H](N5CCCC5)CC[C@]4(C)[C@H]3CC[C@@]21C | > 100 µM | > 100 µM | > 100 µM | > 100 µM | > 100 µM | > 100 µM | > 100 µM | > 100 µM | > 100 µM | > 100 µM |
| CC1(C)N=C(C(N)=O)c2[nH]cnc2N1 | > 100 µM | > 100 µM | > 100 µM | > 100 µM | > 100 µM | > 100 µM | > 100 µM | > 100 µM | > 100 µM | > 100 µM |
| CC(=O)c1csc2c1C(=O)c1ccccc1C2=O | 26.7 µM | 12.9 µM | 3.42 µM | 16.6 µM | 5.07 µM | 4.06 µM | 4.21 µM | 4.57 µM | 1.7 µM | 3.68 µM |
| S=C(NCc1ccccn1)N/N=C/c1ccccn1 | 4.52 µM | > 100 µM | 0.163 µM | > 100 µM | > 100 µM | 1.46 µM | > 100 µM | 1.1 µM | 38.3 µM | > 100 µM |
| O=c1cc(NNc2cccc3ccccc23)[nH]c(=O)[nH]1 | 31.9 µM | 31 µM | 27.9 µM | 40.9 µM | 33.3 µM | 33.4 µM | 24.4 µM | 30.3 µM | 31.8 µM | 29.9 µM |
| CCCOC(=O)c1cc(O)c(O)c(O)c1 | > 100 µM | > 100 µM | > 100 µM | > 100 µM | > 100 µM | > 100 µM | 76.9 µM | > 100 µM | > 100 µM | > 100 µM |
| O=c1c(-c2nc3ccccc3c3ccccc3c2=O)nc2ccccc2c2ccccc12 | 82.9 µM | > 100 µM | > 100 µM | > 100 µM | > 100 µM | > 100 µM | 69 µM | > 100 µM | > 100 µM | > 100 µM |
| Cc1nn2c(=O)c([N+](=O)[O-])c(/C=C/c3ccc(F)cc3)nc2s1 | 10.7 µM | 26.2 µM | 19 µM | 25.1 µM | 19.7 µM | 24.3 µM | 15.8 µM | 20.6 µM | 16.7 µM | 16.3 µM |
